Measured values as given in US8343531B2, “Composition containing peptide as active ingredient” (Meiji Co., Ltd., priority 2006, dated 2013).
Residues, ends and D or L forms follow the SMILES beside them.

Experiments:
Rat L6 myotubes = test: Rate of glucose uptake into muscle cells; format: cell-based; conditions: 1 mM dipeptide, 3 hours, then 8 mM 2-deoxyglucose 10 minutes; average ± SD; control 1.21 ± 0.07
Description: Rat L6 myotubes were cultured in an Eagle medium containing 10% bovine serum (α-MEM) in a Petri dish coated with type 1 collagen in 5% CO2/95% O2. The cells were recovered by trypsin treatment in a usual manner and seeded at a density of 50,000 cells/well on a 48-well plate coated with type 1 collagen, and cultured for 3 days to make the cells confluent. After the medium was removed, 500 μL of an Eagle medium containing 2% bovine serum (α-MEM) was added to each well, and then the cells were cultured for 5 days thereby inducing differentiation. Each well was washed with 500 μL KRH buffer (136 mM NaCl, 4.7 mM KCl, 1.25 mM CaCl2, 1.25 mM MgSO4.7H2O, 20 mM Hepes, 1 mg/mL BSA, pH 7.4) carefully such that the cells were not detached. Then, […] KRH buffer containing 1 mM Ile-Leu, Ile-Trp, Ala-Leu, Val-Leu, Gly-Leu, Asp-Leu, Lys-Ile, Leu-Leu, Ile-Ile, Leu-Ile, Ile-Asn, Leu-Ala, Leu-Glu, Leu-Val or Ile-Val (Kokusan Chemical Co., Ltd.) was added to each well and reacted for 3 hours with the cells. Thereafter, the KRH buffer was removed, and […] buffer containing 8 mM 2-deoxyglucose was added to each well and reacted for accurately 10 minutes with for the cells. The reaction was terminated with […] 0.1 N NaOH, followed by neutralization with an equal volume of 0.1 N HCl, and then the amount of 2-deoxyglucose 6-phosphate in the cells was quantified by an enzymatic method to determine the rate of glucose uptake.

[1] = test system: isolated epitrochlearis muscles; test: Influence of PI3K inhibitor and GLUT-4 inhibitor on the rate of glucose uptake into isolated muscles; format: cell-based, Wister rats; conditions: 1 mM Ile-Leu alone; average ± SD; control 0.95 ± 0.10
Description: Epitrochlearis muscles were excised from male Wister rats (each weighing 120 g) (8 samples per group) under pentobarbital anesthesia carefully so as not to hurt the epitrochlearis muscles. The epitrochlearis muscles were incubated at 35° C. for 1 hour in KRH buffer containing 0.1% BSA, 8 mM glucose and 32 mM mannitol, in 5% CO2/95% O2. Thereafter, the epitrochlearis muscles were removed and incubated at 30° C. for 30 minutes in KRH buffer containing 0.1% BSA, 40 mM mannitol, and 1 mM Ile-Leu (Kokusan Chemical Co., Ltd.), 1 mM Ile-Leu+10 μM LY294002 (Sigma) or 1 mM Ile-Leu+70 μM cytochalasin B (Sigma) in 5% CO2/95% O2. Then, the epitrochlearis muscles were removed and incubated at 30° C. for accurately 20 minutes in KRH buffer containing 0.1% BSA, 32 mM mannitol and 8 mM 2-deoxyglucose, in 5% CO2/95% O2. Immediately after incubation for accurately 20 minutes, the epitrochlearis muscles were frozen with liquid nitrogen. Thereafter, the frozen epitrochlearis muscles were homogenized in 0.3 M perchloric acid aqueous solution, and after the resulting suspension was neutralized, the amount of 2-deoxyglucose 6-phosphate in the muscles was quantified by an enzymatic method to determine the rate of glucose uptake.

Wister rats = test: Oral glucose tolerance test; format: in vivo; conditions: 0.1 g/kg BW oral with glucose 2.0 g/kg BW
Description: Male Wister rats each weighing about 360 g (6 rats per group) were used. The rats were fasted for 18 hours and then administered with 30% glucose aqueous solution in a dose of 2.0 g/kg body weight (BW). […] After 30, 60, 90, 120 and 180 minutes, blood was collected from a rat tail vein and measured for its blood glucose level with Diasensor (manufactured by ARKRAY, Inc.).

[2] = test system: isolated epitrochlearis muscles; test: Rate of glucose uptake into isolated muscles; format: cell-based, Wister rats; conditions: 1 mM dipeptide, 30 min at 30° C., then 8 mM 2-deoxyglucose 20 min; average ± SD; control 0.95 ± 0.10
Description: Epitrochlearis muscles were excised from male Wister rats (each weighing 120 g) (16 rats) under pentobarbital anesthesia carefully so as not to hurt the epitrochlearis muscles. The epitrochlearis muscles were incubated at 35° C. for 1 hour in KRH buffer (136 mM NaCl, 4.7 mM KCl, 1.25 mM CaCl2, 1.25 mM MgSO4.7H2O, 20 mM Hepes, 1 mg/mL BSA, pH 7.4; referred to hereinafter as KRH buffer) containing 0.1% bovine serum albumin (BSA), 8 mM glucose and 32 mM mannitol, in 5% CO2/95% O2. Thereafter, the epitrochlearis muscles were removed and incubated (8 samples per group) at 30° C. for 30 minutes in KRH buffer containing 0.1% BSA, 40 mM mannitol, and 1 mM Ile-Leu (Kokusan Chemical Co., Ltd.), 1 mM Ile-Trp (Kokusan Chemical Co., Ltd.), or the milk whey protein hydrolysate containing 1 mM leucine in terms of amino acid, produced in Production Example 1, in 5% CO2/95% O2. Then, the epitrochlearis muscles were removed and incubated at 30° C. for accurately 20 minutes in KRH buffer containing 0.1% BSA, 32 mM mannitol and 8 mM 2-deoxyglucose, in 5% CO2/95% O2. […] Thereafter, the frozen epitrochlearis muscles were homogenized in 0.3 M perchloric acid aqueous solution, and after the resulting suspension was neutralized, the amount of 2-deoxyglucose-6-phosphate in the muscles was quantified by an enzymatic method to determine the rate of glucose uptake.

CC[C@H](C)[C@H](N)C(=O)N[C@@H](CC(C)C)C(=O)O [Ile-Leu, Isoleucyl leucine] (H-Ile-Leu-OH)
Rate of glucose uptake into muscle cells (Rat L6 myotubes): 1.61 ± 0.05 nmol/min/well | Rate of glucose uptake into isolated skeletal muscles [1]: 1.88 ± 0.40 μmol/min/g muscle | Blood glucose level (change) (Wister rats; 0 minute, fasted rats, average ± SD): 0 ± 0 mg/100 mL | Blood glucose level (change) (Wister rats; 30 minutes, glucose alone 62 ± 4): 44 ± 8 mg/100 mL | Blood glucose level (change) (Wister rats; 60 minutes, glucose alone 61 ± 4): 57 ± 7 mg/100 mL | Blood glucose level (change) (Wister rats; 90 minutes, glucose alone 57 ± 4): 35 ± 4 mg/100 mL | Blood glucose level (change) (Wister rats; 120 minutes, glucose alone 27 ± 6): 19 ± 3 mg/100 mL | Blood glucose level (change) (Wister rats; 180 minutes, glucose alone 5 ± 1): 1 ± 3 mg/100 mL | Rate of glucose uptake into isolated skeletal muscles [2]: 1.88 ± 0.40 μmol/min/g muscle

Ala-Leu
Rate of glucose uptake into muscle cells (Rat L6 myotubes): 1.91 ± 0.07 nmol/min/well

Asp-Leu
Rate of glucose uptake into muscle cells (Rat L6 myotubes): 1.81 ± 0.50 nmol/min/well

Gly-Leu
Rate of glucose uptake into muscle cells (Rat L6 myotubes): 1.81 ± 0.04 nmol/min/well

Ile-Asn
Rate of glucose uptake into muscle cells (Rat L6 myotubes): 1.92 ± 0.06 nmol/min/well

Ile-Ile
Rate of glucose uptake into muscle cells (Rat L6 myotubes): 1.88 ± 0.05 nmol/min/well

Ile-Trp
Rate of glucose uptake into muscle cells (Rat L6 myotubes): 1.91 ± 0.06 nmol/min/well | Rate of glucose uptake into isolated skeletal muscles [2]: 1.92 ± 0.31 μmol/min/g muscle

Ile-Val
Rate of glucose uptake into muscle cells (Rat L6 myotubes): 1.80 ± 0.07 nmol/min/well

Leu-Ala
Rate of glucose uptake into muscle cells (Rat L6 myotubes): 2.09 ± 0.08 nmol/min/well

Leu-Glu
Rate of glucose uptake into muscle cells (Rat L6 myotubes): 2.16 ± 0.05 nmol/min/well

Leu-Ile
Rate of glucose uptake into muscle cells (Rat L6 myotubes): 1.73 ± 0.04 nmol/min/well

Leu-Leu
Rate of glucose uptake into muscle cells (Rat L6 myotubes): 1.75 ± 0.05 nmol/min/well

Leu-Val
Rate of glucose uptake into muscle cells (Rat L6 myotubes): 1.74 ± 0.06 nmol/min/well

Lys-Ile
Rate of glucose uptake into muscle cells (Rat L6 myotubes): 2.34 ± 0.06 nmol/min/well

Val-Leu
Rate of glucose uptake into muscle cells (Rat L6 myotubes): 1.76 ± 0.07 nmol/min/well
